Measurements from patent US20250082614A1, “METHODS OF USING RAD51 INHIBITORS FOR TREATMENT OF PANCREATIC CANCER” (Cyteir Therapeutics, Inc., priority 2019, published 2025).
Like-named read-outs stand apart in the source and are kept apart here.

Test: Bi-directional Caco-2 permeability
Assay type: in vitro ADME
Details: human; for Papp A→B at 90 min / Papp B→A at 90 min: Caco-2, 37° C., up to 90 minutes; for Papp A→B at 90 min: apical to basolateral, read-out: AB Papp (cm/sec × 10^6); for Papp B→A at 90 min: basolateral to apical, read-out: BA Papp (cm/sec × 10^6); for efflux ratio at 90 min: Caco-2 efflux ratio, read-out: BA/AB Ratio
Procedure: Bi-directional Caco-2 permeability was assayed. Caco-2 cells were seeded onto permeable polycarbonate supports and allowed to differentiate for about 3 weeks prior to being used in the assays. The cells were then exposed to the compounds from either the apical or basolateral sides and incubated at 37° C. for up to 90 minutes under light agitation. Compound transport was then measured using LC/MS/MS analysis at 30, 60, and 90 minutes.

[1] = Caco-2, apical to basolateral, read-out: AB Recovery %
[2] = Caco-2, basolateral to apical, read-out: BA Recovery %

| SMILES | recovery at 90 min [1] | recovery at 90 min [2] | Papp A→B at 90 min | Papp B→A at 90 min | efflux ratio at 90 min |
| --- | --- | --- | --- | --- | --- |
| CC(C)OC(=O)Nc1ccc(-c2cnc(C3CC[C@@H](NC(=O)OC(C)C)CO3)s2)c(S(=O)(=O)NC(C)(C)C)c1 (mixture of isomers) [Ex. 60, trans-isopropyl N-[6-[5-[2-(tert-butylsulfamoyl)-4-(isopropoxycarbonylamino)phenyl]thiazol-2-yl]tetrahydropyran-3-yl]carbamate] | 59.8% | 90.8% | 15.6 ×10⁻⁶ cm/s | 13.3 ×10⁻⁶ cm/s | 0.9 |
| CC(C)NC(=O)OC1CCC(c2ncc(-c3ccc(NC(=O)NCc4ccccc4)cc3S(=O)(=O)NC(C)(C)C)s2)CC1 (stereo not drawn) [Ex. 21] | – | – | 3.6 ×10⁻⁶ cm/s | 10.7 ×10⁻⁶ cm/s | 3 |
| CC(C)OC(=O)NC1CCC(c2ncc(-c3ccc(NC(=O)N[C@H](C)c4ccccn4)cc3S(=O)(=O)NC(C)(C)C)s2)CC1 (stereo partly drawn) [Ex. 30, isopropyl ((1R,4r)-4-(5-(2-(N-(tert-butyl)sulfamoyl)-4-(3-((R)-1-(pyridin-2-yl)ethyl)ureido)phenyl)thiazol-2-yl)cyclohexyl)carbamate] | – | – | 11.5 ×10⁻⁶ cm/s | 15.7 ×10⁻⁶ cm/s | 1.4 |
| CC(C)OC(=O)N[C@@H]1CCC(c2ncc(-c3ccc(NC(=O)NCc4ccccc4)cc3S(=O)(=O)NC(C)(C)C)s2)NC1 (stereo partly drawn) [Ex. 64] | – | – | 2.2 ×10⁻⁶ cm/s | 27.4 ×10⁻⁶ cm/s | 12.5 |

The next lines start with the values.

| recovery at 90 min [1] | recovery at 90 min [2] | Papp A→B at 90 min | Papp B→A at 90 min | efflux ratio at 90 min | SMILES |
| --- | --- | --- | --- | --- | --- |
| 61.5% | 91.5% | 3.1 ×10⁻⁶ cm/s | 15 ×10⁻⁶ cm/s | 4.8 | CC(C)OC(=O)N[C@@H]1CCC(c2ncc(-c3ccc(NC(=O)NCc4ccccc4)cc3S(=O)(=O)NC(C)(C)C)s2)OC1 (mixture of isomers) [Ex. 59, trans-isopropyl N-[6-[5-[4-(benzylcarbamoylamino)-2-(tert-butylsulfamoyl)phenyl]thiazol-2-yl]tetrahydropyran-3-yl]carbamate] |
| 83.1% | 89% | 1.1 ×10⁻⁶ cm/s | 21 ×10⁻⁶ cm/s | 18.7 | CC(C)OC(=O)N[C@H]1CC[C@H](c2ncc(-c3ccc(NC(=O)NCc4ccncc4)cc3S(=O)(=O)NC(C)(C)C)s2)CC1 [Ex. 22, trans-isopropyl N-[4-[5-[2-(tert-butylsulfamoyl)-4-(4-pyridylmethylcarbamoylamino)phenyl]thiazol-2-yl]cyclohexyl]carbamate] |
| – | – | 0.7 ×10⁻⁶ cm/s | 0.5 ×10⁻⁶ cm/s | 0.7 | CC(C)OC(=O)NC1CCC(c2ncc(-c3ccc(NC(=O)NCc4cccc(F)c4)cc3S(=O)(=O)NC(C)(C)C)s2)CC1 (stereo not drawn) [Ex. 27, isopropyl ((1r,4r)-4-(5-(2-(N-(tert-butyl)sulfamoyl)-4-(3-(3-fluorobenzyl)ureido)phenyl)thiazol-2-yl)cyclohexyl)carbamate] |
| – | – | 1.9 ×10⁻⁶ cm/s | 3.3 ×10⁻⁶ cm/s | 1.7 | CC(C)OC(=O)NC1CCC(c2ncc(-c3ccc(NC(=O)NCc4ccccc4F)cc3S(=O)(=O)NC(C)(C)C)s2)CC1 (stereo not drawn) [Ex. 28, isopropyl ((1r,4r)-4-(5-(2-(N-(tert-butyl)sulfamoyl)-4-(3-(2-fluorobenzyl)ureido)phenyl)thiazol-2-yl)cyclohexyl)carbamate] |
